According to US20170143748A1, “ANTI-TUMOR PHARMACEUTICAL APPLICATION OF PENTACYCLIC TRITERPENE SAPONIN COMPOUNDS OF SZECHUAN MELANDIUM ROOT” (priority 2014, published 2017):
Values joined by “and” are separate entries in the source; they are usually repeats but may differ in a detail not shown here. Equal entries are not always repeated.

Key:
MCF-7 = assay: MTT inhibition of tumor cells in vitro (Example 3); format: cell-based, Human; conditions: Homo sapiens, MCF7, 40 μg/mL, 48 hours, read-out: Inhibition rate, MCF-7
Method: (§1) Human resources tumor cell line […], […], HT29, MCF-7 and A875 were provided by Cancer Hospital, Chinese Academy of Medical Sciences.
(§2) Cells were passaged every 2 or 3 days, and all the experiments were carried out on exponentially growing cells.
(§3) All cells were cultured in a humidified atmosphere (5% CO2 and […]), and passaged every 2 or 3 days. Cells were harvested on exponentially growing phase, and cell suspension was prepared with 2×10^4 cells/mL, added with 100 μL per well of 96-well plates, and cultured for 24 h in incubator. 100 μL medium without cells was added per well as blank group.
(§4) Compound (1), (2), (3), (4), (7) or (8) was dissolved in DMSO respectively, and diluted with 1640 medium at a final concentration of 400 μg/mL, so as to that of the Cisplatin. Cells were divided into 9 groups, they were blank group, model group, Compound (1), (2), (3), (4), (7) and (8) groups, and Cisplatin group as the positive one, 6 wells per group.
(§5) Before drug administration, supernatant of each well was removed and fresh 1640 medium was added, 180 μL per well. Compounds and Cisplatin were added with 20 μL per well respectively at a final concentration of 40 μg/mL. Wells of blank and model groups were added with 0.5% DMSO, 20 μL per well. 48 hours later, 20 μL MTT was added per well and continued to culture for 4 hours, then the supernatant was replaced carefully and DMSO was added with 150 μL per well to end the experiment. The 96-well plates were shaken for 10 mins and read the absorbance at 490 nm. The Inhibition rate was calculated.
(§6) Inhibition rate=[(ODmodel−ODblank)−(ODdrugs−ODblank)]/(ODmodel−ODblank)×100%
(§7) The MTT experiment was repeated three times.

A875 = assay: MTT inhibition of tumor cells in vitro (Example 3); format: cell-based, Human; conditions: Homo sapiens, A875, 40 μg/mL, 48 hours, read-out: Inhibition rate, A875
Method: as §1, §2, §3, §4, §5, §6, §7

HT29 = assay: MTT inhibition of tumor cells in vitro (Example 3); format: cell-based, Human; conditions: Homo sapiens, HT-29, 48 h, 40 μg/mL, read-out: Inhibition rate, HT29
Method: as §1, §2, §3, §4, §5, §6, §7

BGC823 = assay: MTT inhibition of tumor cells in vitro (Example 3); format: cell-based, Human; conditions: Homo sapiens, BGC-823, 48 h, 40 μg/mL, read-out: Inhibition rate, BGC823
Method: as §1, §2, §3, §4, §5, §6, §7

HepG2 = assay: Cell cycle detection (PI flow cytometry); format: cell-based, Human
Method: Human resources hepatoma cell line HepG2 was provided by Cancer Hospital, Chinese Academy of Medical Sciences. […] Cells were passaged every 2 or 3 days, and all the experiments were carried out on exponentially growing cells.
[…] Cells were blown and centrifuged at 1000 RPM for 5 mins. The supernatant was removed and 1-2 mL cold phosphate-buffered saline was added, blown and centrifuged again. The precipitate was blew and then fixed with −20° C. 70% alcohol (1-2 mL), centrifuged again. Alcohol was removed, and the precipitate was washed two times with phosphate-buffered saline, blown for suspension and filtered through 100 mesh gauze filter to flow detection tube, centrifuged at 1000 RPM for 5 mins. The supernatant was abandoned and cells were stained with PI dye (50 μg/mL), vibrated and stained at least 30 mins in darkness, detected with Flow cytometry.

HT29 human colon cancer = assay: Anti-HT29 human colon cancer in BALB/c (nu/nu) nude mice; format: in vivo; conditions: for body weight of HT29-bearing nude mice / tumor volume of HT29-bearing nude mice: mg/kg BW: total saponins 1.5, Compound 1, combination 1 & 19, PTX 20, Sc
Method: Human resources Colon cancer cell line HT29 was cultured in the same condition as the experiment 4. […] Mice were randomly assigned into 7 groups: […] The body weight and the tumor volume were measured and recorded weekly. The tumor volume was calculated according to the formula below. […] The tumors were departed and weighed.

`COC(=O)C1CC(O[C@H]2CC[C@]3(C)[C@H]4C=CC5[C@@H]6CC(C)(C)CC[C@]6(C(=O)OC6OC(C)C(OC(=O)/C=C/c7ccc(C)cc7)C(OC(C)=O)C6OC6CC(C)C(O)C(O)C6O)[C@H](O)C[C@@]5(C)[C@]4(C)CC[C@H]3[C@]2(C)C=O)C(OC2OC(CO)C(O)C(O)C2O)C(OC2OCC(O)C(O)C2O)C1O` (stereo partly drawn) [Compound (2), sinocrassuloside VII] was tested. Which inhibition at 40 µg/mL (MCF-7) did it give?
Its inhibition at 40 µg/mL is 91 ± 8.68%.

And the inhibition at 40 µg/mL (A875)?
Its inhibition at 40 µg/mL is 77.5 ± 9.94%.

And the inhibition at 40 µg/mL (HT29)?
Its inhibition at 40 µg/mL is > 90%.

And the inhibition at 40 µg/mL (BGC823)?
The inhibition at 40 µg/mL was > 90%.

And the “cells in G0/G1” value (HepG2; 20 μg/mL, 24 h)?
The value was 67.26%.

What about the “cells in G2/M” value (HepG2; 20 μg/mL, 24 h) of the same compound?
The value was 15.57%.

What about the “cells in S” value (HepG2; 20 μg/mL, 24 h) of the same compound?
The value was 17.22%.

What about the “cells in G0/G1” value (HepG2; 20 μg/mL, 48 h) of the same compound?
Its value is 60.62%.

What about the “cells in G2/M” value (HepG2; 20 μg/mL, 48 h) of the same compound?
The value was 23.27%.

What about the “cells in S” value (HepG2; 20 μg/mL, 48 h) of the same compound?
Its value is 16.11%.

What about the “cells in G0/G1” value (HepG2; 20 μg/mL, 72 h) of the same compound?
The value was 59.77%.

What about the “cells in G2/M” value (HepG2; 20 μg/mL, 72 h) of the same compound?
Its value is 13.96%.

And the “cells in S” value (HepG2; 20 μg/mL, 72 h)?
Its value is 26.27%.

And the “cells in G0/G1” value (HepG2; 40 μg/mL, 24 h)?
Its value is 52.52%.

What about the “cells in G2/M” value (HepG2; 40 μg/mL, 24 h) of the same compound?
The value was 29.95%.

What about the “cells in S” value (HepG2; 40 μg/mL, 24 h) of the same compound?
The value was 17.53%.

And the “cells in G0/G1” value (HepG2; 40 μg/mL, 48 h)?
The value was 55.08%.

And the “cells in G2/M” value (HepG2; 40 μg/mL, 48 h)?
The value was 32.64%.

And the “cells in S” value (HepG2; 40 μg/mL, 48 h)?
The value was 12.29%.

What about the “cells in G0/G1” value (HepG2; 40 μg/mL, 72 h) of the same compound?
The value was 63.09%.

What about the “cells in G2/M” value (HepG2; 40 μg/mL, 72 h) of the same compound?
The value was 20.44%.

What about the “cells in S” value (HepG2; 40 μg/mL, 72 h) of the same compound?
Its value is 16.48%.

What about the “cells in G0/G1” value (HepG2; 80 μg/mL, 24 h) of the same compound?
Its value is 55.19%.

What about the “cells in G2/M” value (HepG2; 80 μg/mL, 24 h) of the same compound?
The value was 21.20%.

What about the “cells in S” value (HepG2; 80 μg/mL, 24 h) of the same compound?
Its value is 20.39±2.56% and 20.39%.

And the “cells in G0/G1” value (HepG2; 80 μg/mL, 48 h)?
The value was 47.28%.

And the “cells in G2/M” value (HepG2; 80 μg/mL, 48 h)?
The value was 21.77%.

And the “cells in S” value (HepG2; 80 μg/mL, 48 h)?
The value was 30.95±5.84% and 30.95%.

And the “cells in G0/G1” value (HepG2; 80 μg/mL, 72 h)?
Its value is 49.28%.

What about the “cells in G2/M” value (HepG2; 80 μg/mL, 72 h) of the same compound?
The value was 10.39%.

And the “cells in S” value (HepG2; 80 μg/mL, 72 h)?
The value was 40.34±12.32% and 40.34%.

What about the “body weight of HT29-bearing nude mice” value (HT29 human colon cancer; 0 W) of the same compound?
Its value is 20.10 ± 1.35.

And the “body weight of HT29-bearing nude mice” value (HT29 human colon cancer; 1 W)?
Its value is 22.10 ± 0.90.

And the “tumor volume of HT29-bearing nude mice” value (HT29 human colon cancer; 1 W)?
Its value is 639.16 ± 539.16.

And the “body weight of HT29-bearing nude mice” value (HT29 human colon cancer; 2 W)?
Its value is 22.90 ± 0.90.

What about the “tumor volume of HT29-bearing nude mice” value (HT29 human colon cancer; 2 W) of the same compound?
Its value is 918.54 ± 469.16.

And the “body weight of HT29-bearing nude mice” value (HT29 human colon cancer; 3 W)?
The value was 22.70 ± 1.38.

And the “tumor volume of HT29-bearing nude mice” value (HT29 human colon cancer; 3 W)?
The value was 859.24 ± 691.16.

What about the Inhibition rate (HT29 human colon cancer; HT29-bearing nude mice, after 3 weeks, from average tumor mass vs model) of the same compound?
The Inhibition rate was 54.87%.
